Holding throughout (format): cell-based
In test [1] the test system is hepatocellular carcinoma cell line Hep3B. In words: Growth inhibition of Hep3B cells, 48 hr treatment, Hoechst 33342 nucleus count (GE InCell 2200). As to conditions: Homo sapiens. An outline of the steps:
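Compound exposure lasted 48 hr at 37° C, 5% CO2. Surviving nuclei were counted after Hoechst 33342 staining, and survival was expressed as the treated/non-treated cell number ratio, including the ratio at 10 μM compound.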

In test [2] the test system is Hep3B hepatocellular carcinoma cell line. As to the kind of experiment: MTS cell viability assay (NCI-60 methodology), GI50/LC50, Hep3B. As to conditions: Homo sapiens, 48 h, Hep3B cells, 2 days incubation with compound. On the procedure: (§1) The number of treated cells was determined by GE InCell 2200 system, and treated cells were stained with Hoechst 33342 which can reveal the remained nucleus in culture plate. The proportion of survival cells then were calculated with the ratio of treated/non-treated cells. The growth inhibition/cytotoxic effect of selected compounds were evaluated by the following protocol of NCI-60 screening platform. The human tumor cell lines are plating on a 96 well plate in a fixed density 24 hr prior compound treatment. Compounds with multiple concentrations are then added into each well for further 48 hr incubation. Cell viability is assessed by MTS method and the potency of compound is represented by GI50 and LC50 calculated by MTS result.
(§2) The cell viability measurement is based on the NCI-60 screening methodology (Nat. Rev. Cancer 6, 813-823, 2006). Briefly, cells are inoculated into 96-well plates at the optimal plating density. After 24 h, one of the two plates for each cell line is processed to determine a time zero cell viability (Tz) by MTS assay (Promega). Compounds are added over a 2-fold serial dilution to provide a total five drug concentrations plus DMSO control. Plates are incubated for a further 2 days, then measured cell viability by MTS assay [control growth (C) and test growth in the presence of drug at the five concentration levels (Ti)]. Growth inhibition of 50% (GI50) is calculated from [(Ti−Tz)/(C−Tz)]×100=50, which is the drug concentration resulting in a 50% reduction of control cells during the drug incubation. The LC50 is calculated from [(Ti−Tz)/Tz]×100=−50, which is the drug concentration resulting in a 50% reduction at the end of the drug treatment as compared to that at the beginning.
(§3) Herein, Hep3B refers to hepatocellular carcinoma cell line, SW480 refers to colon adenocarcinoma cell line, and NCI-H460 refers to human lung cancer cell line.
On the technique in general: Tetrazolium dyes change colour on reduction, which living cells bring about.

Test [3] concerns NCI-H460 human lung cancer cell line. In words: MTS cell viability assay (NCI-60 methodology), GI50/LC50, NCI-H460. As to conditions: 48 h, NCI-H460 cells, 2 days incubation with compound. On the procedure:
as §1, §2, §3

Test [4] concerns SW480 colon adenocarcinoma cell line. In words: MTS cell viability assay (NCI-60 methodology), GI50/LC50, SW480. As to conditions: Homo sapiens, 48 h, SW480 cells, 2 days incubation with compound. On the procedure:
as §1, §2, §3

Setting [5] is: Table 5, ratio of number of tumor cells treated with 10 μM compound to non-treated cells.
Where [6] appears, read: Table 6, ratio of number of tumor cells treated with 10 μM compound to non-treated cells.

One may read the viability as a per cent measure of how many cells are alive, often set against a control. The GI50 is the concentration at which growth is held to half of that of the control. As a reminder, the LC50 is the concentration that kills 50% of the test population. Consider `CCC(C)(C)c1ccc(Oc2sc(NC(=O)c3ccc([N+](=O)[O-])s3)nc2-c2ccc(F)cc2)cc1` [Compound 5-62, N-(4-(4-fluorophenyl)-5-(4-(tert-pentyl)phenoxy)thiazol-2-yl)-5-nitrothiophene-2-carboxamide], for which, in test [1] (setting [5]), the viability at 10 µM stood at 45%. For the same compound, in test [2], the concentration for 50% growth inhibition (GI50) came out at 450 nM and the 50% lethal concentration (LC50) was found to be 1160 nM. Moreover, in test [3], the 50% growth inhibitory concentration (GI50) turned out to be 590 nM and the LC50 (concentration giving 50% net cell loss versus time zero, NCI-60 definition) was found to be 1240 nM. Also, in test [4], the 50% growth inhibitory concentration (GI50) was 760 nM and the LC50 (NCI-60 lethal concentration, 50% net cell loss vs time zero) was 2250 nM.

`CC(C)(C)c1ccc(-c2nc(NC(=O)c3ccc([N+](=O)[O-])s3)sc2Oc2ccccc2C(F)(F)F)cc1` [Compound 5-75, N-(4-(4-(tert-butyl)phenyl)-5-(2-(trifluoromethyl)phenoxy)thiazol-2-yl)-5-nitrothiophene-2-carboxamide]: the viability at 10 µM in test [1] (setting [5]) was determined as 34%. Besides, in test [2], the GI50 was 800 nM and the 50% lethal concentration (LC50) came to 1310 nM. Also, in test [3], the concentration for 50% growth inhibition (GI50) was found to be 670 nM and the LC50 (concentration giving 50% net cell loss versus time zero, NCI-60 definition) turned out to be 1110 nM. Besides, in test [4], the concentration for 50% growth inhibition (GI50) came to 730 nM and the LC50 (NCI-60 lethal concentration, 50% net cell loss vs time zero) was found to be 1670 nM.

On to `Nc1nc2ccc(CC(=O)Nc3nc(-c4ccc(Br)cc4)c(-c4ccc(Br)cc4)s3)cc2s1` [Compound 3-10, 2-(2-aminobenzo[d]thiazol-6-yl)-N-(4,5-bis(4-bromophenyl)thiazol-2-yl)acetamide], for which, in test [1] (Table 3, ratio of number of tumor cells treated with 10 μM compound to non-treated cells), the viability at 10 µM is 52%. In addition, in test [2], the GI50 turned out to be 510 nM and the 50% lethal concentration (LC50) was 1290 nM. Besides, in test [3], the concentration for 50% growth inhibition (GI50) was 840 nM and the LC50 (concentration giving 50% net cell loss versus time zero, NCI-60 definition) was determined as 6620 nM. Also, in test [4], the concentration for 50% growth inhibition (GI50) turned out to be 1210 nM and the LC50 (NCI-60 lethal concentration, 50% net cell loss vs time zero) is 7080 nM.

Take `CCOc1ccc(-c2nnc(NC(=O)Cc3ccc4nc(N)sc4c3)s2)cc1` [Compound 1-2, 2-(2-aminobenzo[d]thiazol-6-yl)-N-(5-(4-ethoxyphenyl)-1,3,4-thiadiazol-2-yl)acetamide]: the viability at 10 µM in test [1] (Table 1, ratio of number of tumor cells treated with 10 μM compound to non-treated cells) is 61%. In test [2], the 50% growth inhibitory concentration (GI50) came to 160 nM and the median lethal concentration (LC50) was found to be 480 nM. For the same compound, in test [3], the 50% growth inhibitory concentration (GI50) worked out at 860 nM and the LC50 (concentration giving 50% net cell loss versus time zero, NCI-60 definition) is 1240 nM. In addition, in test [4], the GI50 was found to be 3550 nM and the LC50 (NCI-60 lethal concentration, 50% net cell loss vs time zero) amounted to 8930 nM.

Consider `CCC(C)(C)c1ccc(-c2nc(NC(=O)c3ccc([N+](=O)[O-])s3)sc2-c2ccc(F)cc2F)cc1` [Compound 6-47, N-(5-(2,4-difluorophenyl)-4-(4-(tert-pentyl)phenyl)thiazol-2-yl)-5-nitrothiophene-2-carboxamide], for which, in test [1] (setting [6]), the viability at 10 µM was 33%. Moreover, in test [2], the GI50 was 590 nM and the LC50 is 660 nM. For the same compound, in test [3], the concentration for 50% growth inhibition (GI50) came to 580 nM and the LC50 (concentration giving 50% net cell loss versus time zero, NCI-60 definition) came out at 930 nM. For the same compound, in test [4], the GI50 came out at 640 nM and the LC50 (NCI-60 lethal concentration, 50% net cell loss vs time zero) amounted to 1390 nM.

In the case of `CC(C)(C)c1ccc(-c2nc(NC(=O)c3ccc([N+](=O)[O-])s3)sc2Oc2ccccc2)cc1` [Compound 5-14, N-(4-(4-(tert-butyl)phenyl)-5-phenoxythiazol-2-yl)-5-nitrothiophene-2-carboxamide], the viability at 10 µM in test [1] (setting [5]) was 50%. Also, the values for the GI50 in test [2], in test [3] and in test [4] were 340 nM, 1720 nM and 1510 nM, respectively. Further, the LC50 in test [2] worked out at 7350 nM.

For `CCCOc1ccc(-c2nc(NC(=O)c3ccc([N+](=O)[O-])s3)sc2Oc2ccc(C#N)cc2)cc1` [Compound 5-39, N-(5-(4-cyanophenoxy)-4-(4-propoxyphenyl)thiazol-2-yl)-5-nitrothiophene-2-carboxamide], in test [1] (setting [5]), the viability at 10 µM turned out to be 56%. Also, in test [2], the GI50 amounted to 890 nM and the LC50 was found to be 5530 nM. Also, in test [3], the GI50 was 230 nM and the LC50 (concentration giving 50% net cell loss versus time zero, NCI-60 definition) turned out to be 1160 nM. In test [4], the concentration for 50% growth inhibition (GI50) worked out at 1490 nM and the LC50 (NCI-60 lethal concentration, 50% net cell loss vs time zero) was 6540 nM.

For `CC(C)(C)c1ccc(-c2nc(NC(=O)c3ccc([N+](=O)[O-])s3)sc2-c2ccc(Cl)cc2)cc1` [Compound 6-59, N-(4-(4-(tert-butyl)phenyl)-5-(4-chlorophenyl)thiazol-2-yl)-5-nitrothiophene-2-carboxamide], the viability at 10 µM in test [1] (setting [6]) was determined as 27%. In test [2], the GI50 was determined as 600 nM and the 50% lethal concentration (LC50) came out at 640 nM. In test [3], the concentration for 50% growth inhibition (GI50) was 700 nM and the LC50 (concentration giving 50% net cell loss versus time zero, NCI-60 definition) was determined as 1280 nM. In addition, in test [4], the GI50 stood at 750 nM and the LC50 (NCI-60 lethal concentration, 50% net cell loss vs time zero) was determined as 1620 nM.

Regarding `O=C(Nc1nc(-c2ccc(Br)cc2)c(Oc2cccc(C(F)(F)F)c2)s1)c1ccc([N+](=O)[O-])s1` [Compound 5-11, N-(4-(4-bromophenyl)-5-(3-(trifluoromethyl)phenoxy)thiazol-2-yl)-5-nitrothiophene-2-carboxamide], the viability at 10 µM in test [1] (setting [5]) was found to be 21%. Also, the results for the GI50 in test [2], in test [3] and in test [4] were 6540 nM, 630 nM and 7040 nM, respectively. The LC50 (concentration giving 50% net cell loss versus time zero, NCI-60 definition) in test [3] was determined as 3980 nM.

On to `CCC(C)(C)c1ccc(-c2nc(NC(=O)c3ccc([N+](=O)[O-])s3)sc2Oc2ccc(F)cc2)cc1` [Compound 5-63, N-(5-(4-fluorophenoxy)-4-(4-(tert-pentyl)phenyl)thiazol-2-yl)-5-nitrothiophene-2-carboxamide], for which the viability at 10 µM in test [1] (setting [5]) came to 37%. Further, in test [2], the 50% growth inhibitory concentration (GI50) turned out to be 430 nM and the 50% lethal concentration (LC50) was found to be 950 nM. Besides, in test [3], the GI50 worked out at 680 nM and the LC50 (concentration giving 50% net cell loss versus time zero, NCI-60 definition) was 1110 nM. Also, in test [4], the GI50 is 880 nM and the LC50 (NCI-60 lethal concentration, 50% net cell loss vs time zero) was determined as 1850 nM.

Take `O=C(Nc1nc(-c2ccc(C(F)(F)F)cc2)c(Oc2ccccc2)s1)c1ccc([N+](=O)[O-])s1` [Compound 5-81, 5-nitro-N-(5-phenoxy-4-(4-(trifluoromethyl)phenyl)thiazol-2-yl)thiophene-2-carboxamide]: the viability at 10 µM in test [1] (setting [5]) amounted to 30%. In addition, in test [2], the GI50 stood at 980 nM and the LC50 stood at 4230 nM. In test [3], the GI50 came to 810 nM and the LC50 (concentration giving 50% net cell loss versus time zero, NCI-60 definition) was 2110 nM. Moreover, in test [4], the GI50 worked out at 2470 nM and the LC50 (NCI-60 lethal concentration, 50% net cell loss vs time zero) came out at 8600 nM.

Consider `CCCOc1ccc(-c2nc(NC(=O)c3ccc([N+](=O)[O-])s3)sc2Oc2ccc(F)cc2)cc1` [Compound 5-30, N-(5-(4-fluorophenoxy)-4-(4-propoxyphenyl)thiazol-2-yl)-5-nitrothiophene-2-carboxamide], for which, in test [1] (setting [5]), the viability at 10 µM was 40%. In addition, in test [2], the GI50 stood at 920 nM and the LC50 amounted to 2230 nM. Moreover, in test [3], the GI50 is 700 nM and the LC50 (concentration giving 50% net cell loss versus time zero, NCI-60 definition) amounted to 2150 nM. For the same compound, in test [4], the GI50 was determined as 530 nM and the LC50 (NCI-60 lethal concentration, 50% net cell loss vs time zero) was found to be 2820 nM.

For `CC(C)(C)c1ccc(-c2nc(NC(=O)c3ccc([N+](=O)[O-])s3)sc2-c2ccccc2)cc1` [Compound 6-21, N-(4-(4-(tert-butyl)phenyl)-5-phenylthiazol-2-yl)-5-nitrothiophene-2-carboxamide], the viability at 10 µM in test [1] (setting [6]) was 29%. Moreover, in test [2], the concentration for 50% growth inhibition (GI50) is 670 nM and the LC50 stood at 1350 nM. For the same compound, in test [3], the GI50 was determined as 810 nM and the LC50 (concentration giving 50% net cell loss versus time zero, NCI-60 definition) is 1470 nM. In addition, in test [4], the GI50 is 490 nM and the LC50 (NCI-60 lethal concentration, 50% net cell loss vs time zero) stood at 1470 nM.

In the case of `CC(C)(C)c1ccc(-c2nc(NC(=O)c3ccc([N+](=O)[O-])s3)sc2-c2ccc(F)c(F)c2)cc1` [Compound 6-46, N-(4-(4-(tert-butyl)phenyl)-5-(3,4-difluorophenyl)thiazol-2-yl)-5-nitrothiophene-2-carboxamide], the viability at 10 µM in test [1] (setting [6]) turned out to be 31%. For the same compound, in test [2], the GI50 is 590 nM and the median lethal concentration (LC50) amounted to 1100 nM. In test [3], the GI50 was found to be 630 nM and the LC50 (concentration giving 50% net cell loss versus time zero, NCI-60 definition) is 900 nM. Besides, in test [4], the 50% growth inhibitory concentration (GI50) was 680 nM and the LC50 (NCI-60 lethal concentration, 50% net cell loss vs time zero) amounted to 1330 nM.

These data come from patent US11174253B2, “Compound and pharmaceutical composition containing the same” (ALPHALA CO., LTD., priority 2017, dated 2021).
